Results taken from patent US20230183292A1, “IMMUNOMODULATORS” (priority 2020, published 2023).
Starred links: 1 amine or outer side, 2 acyl side, 3 side chain; linkers in the order of their positions; H or OH if unused. Positions of bridges follow the written chain, without caps; N, C: chain ends. Non-standard residues stand in square brackets, D forms with d. Residues, ends and D or L forms follow the SMILES beside them. Groups on a side chain read outwards from the residue. *: point of attachment. Ursodeoxycholyl = C[C@H](CCC(=O)*)[C@H]1CC[C@H]2[C@@H]3[C@@H](O)C[C@@H]4C[C@H](O)CC[C@]4(C)[C@H]3CC[C@]12C; Cholyl = C[C@H](CCC(=O)*)[C@H]1CC[C@H]2[C@@H]3[C@H](O)C[C@@H]4C[C@H](O)CC[C@]4(C)[C@H]3C[C@H](O)[C@]12C; X35 = O=C(Cn1cc(C[C@H](N[*:1])C(=O)[*:2])c2ccccc21)NCC(F)(F)F; X22 = O=C(Cn1cc(C[C@H](N[*:1])C(=O)[*:2])c2ccccc21)NCCC1CC1; X11 = O=C(Cn1cc(C[C@H](N[*:1])C(=O)[*:2])c2ccccc21)NCCCCCO; X30 = CCCCCCOC(=O)Cn1cc(C[C@H](N[*:1])C(=O)[*:2])c2ccccc21; X4 = O=C(Cn1cc(C[C@H](N[*:1])C(=O)[*:2])c2ccccc21)OCCOCCO; X34 = CCCCOC(=O)Cn1cc(C[C@H](N[*:1])C(=O)[*:2])c2ccccc21; X7 = NCCCCNC(=O)Cn1cc(C[C@H](N[*:1])C(=O)[*:2])c2ccccc21; X37 = O=C(Cn1cc(C[C@H](N[*:1])C(=O)[*:2])c2ccccc21)OCCO; X1 = NCCNC(=O)Cn1cc(C[C@H](N[*:1])C(=O)[*:2])c2ccccc21; Pro(4R-Me) = C[C@H]1CN[C@H](C(=O)O)C1; NMeNle = CCCC[C@H](NC)C(=O)O; NMeA = CN[C@@H](C)C(=O)O; Dab = NCC[C@H](N)C(=O)O; Dap = NC[C@H](N)C(=O)O

Biological target: T1, PD-1/PD-L1 (Homo sapiens, UniProt Q9NZQ7)
T1 construct: TVMV protease site (C); made in house; host or cells: HEK293T cells
T1 sequence (Q9NZQ7 18-239): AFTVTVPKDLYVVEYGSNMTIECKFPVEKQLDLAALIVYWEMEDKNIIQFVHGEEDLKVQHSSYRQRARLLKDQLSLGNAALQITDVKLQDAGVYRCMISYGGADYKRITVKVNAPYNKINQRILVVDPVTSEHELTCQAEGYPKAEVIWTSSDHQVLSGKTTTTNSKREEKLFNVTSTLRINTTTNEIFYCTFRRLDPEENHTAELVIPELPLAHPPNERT
Assay: PD-1/PD-L1 Homogenous Time-Resolved Fluorescence (HTRF) binding assay
Details: PD-L1-His 10 nM, PD-1-Ig 20 nM; read-out: HTRF IC50
How it was run: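 Inhibitors pre-incubated 15 min with PD-L1-His (10 nM final) in dPBS, 0.1% BSA, 0.05% Tween-20, then 15 min with PD-1-Ig (20 nM final). Eu-cryptate anti-Ig (1 nM) and APC anti-His (20 nM) added, 30 min equilibration; HTRF 665/620 nm ratio. Human ECD proteins from HEK293T.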

Row | Structure (SMILES) | IC50 [nM]
1 | CCCC[C@H]1C(=O)N(C)[C@@H](CCCC)C(=O)N[C@@H](CC(C)C)C(=O)N[C@H](C(=O)NCC(N)=O)CSCC(=O)N[C@@H](Cc2ccc(O)cc2)C(=O)N(C)[C@@H](C)C(=O)N[C@@H](CC(N)=O)C(=O)N2CCC[C@H]2C(=O)N[C@@H](CNC(=O)CNC(=O)CC[C@@H](C)[C@H]2CC[C@H]3[C@@H]4[C@H](O)C[C@@H]5C[C@H](O)CC[C@]5(C)[C@H]4C[C@H](O)[C@]23C)C(=O)N[C@@H](CC(C)C)C(=O)N2C[C@H](C)C[C@H]2C(=O)N[C@@H](Cc2c[nH]c3ccccc23)C(=O)N[C@@H](CCNC(=O)CNC(=O)CC[C@@H](C)[C@H]2CC[C@H]3[C@@H]4[C@H](O)C[C@@H]5C[C@H](O)CC[C@]5(C)[C@H]4C[C@H](O)[C@]23C)C(=O)N[C@@H](Cc2cn(CC(=O)NCCC3CC3)c3ccccc23)C(=O)N1C [Example 2028] ({CH2CO}-Y[NMeA]NP[Dap]([Gly-Cholyl])L[Pro(4R-Me)]W[Dab]([Gly-Cholyl])[X22][NMeNle][NMeNle]LCG-NH2; thioether N-14) | 660
2 | CCCC[C@H]1C(=O)N(C)[C@@H](CCCC)C(=O)N[C@@H](CC(C)C)C(=O)N[C@H](C(=O)NCC(N)=O)CSCC(=O)N[C@@H](Cc2ccc(O)cc2)C(=O)N(C)[C@@H](C)C(=O)N[C@@H](CC(N)=O)C(=O)N2CCC[C@H]2C(=O)N[C@@H](CNC(=O)CNC(=O)CC[C@@H](C)[C@H]2CC[C@H]3[C@@H]4[C@H](O)C[C@@H]5C[C@H](O)CC[C@]5(C)[C@H]4C[C@H](O)[C@]23C)C(=O)N[C@@H](CC(C)C)C(=O)N2C[C@H](C)C[C@H]2C(=O)N[C@@H](Cc2c[nH]c3ccccc23)C(=O)N[C@@H](CCNC(=O)CNC(=O)CC[C@@H](C)[C@H]2CC[C@H]3[C@@H]4[C@H](O)C[C@@H]5C[C@H](O)CC[C@]5(C)[C@H]4C[C@H](O)[C@]23C)C(=O)N[C@@H](Cc2cn(CC(=O)NCCCCCO)c3ccccc23)C(=O)N1C [Example 2029] ({CH2CO}-Y[NMeA]NP[Dap]([Gly-Cholyl])L[Pro(4R-Me)]W[Dab]([Gly-Cholyl])[X11][NMeNle][NMeNle]LCG-NH2; thioether N-14) | 670
3 | CCCC[C@H]1C(=O)N(C)[C@@H](CCCC)C(=O)N[C@@H](CC(C)C)C(=O)N[C@H](C(=O)NCC(N)=O)CSCC(=O)N[C@@H](Cc2ccc(O)cc2)C(=O)N(C)[C@@H](C)C(=O)N[C@@H](CC(N)=O)C(=O)N2CCC[C@H]2C(=O)N[C@@H](CNC(=O)CNC(=O)CC[C@@H](C)[C@H]2CC[C@H]3[C@@H]4[C@H](O)C[C@@H]5C[C@H](O)CC[C@]5(C)[C@H]4C[C@H](O)[C@]23C)C(=O)N[C@@H](CC(C)C)C(=O)N2C[C@H](C)C[C@H]2C(=O)N[C@@H](Cc2c[nH]c3ccccc23)C(=O)N[C@@H](CCNC(=O)CNC(=O)CC[C@@H](C)[C@H]2CC[C@H]3[C@@H]4[C@H](O)C[C@@H]5C[C@H](O)CC[C@]5(C)[C@H]4C[C@H](O)[C@]23C)C(=O)N[C@@H](Cc2cn(CC(=O)NCC(F)(F)F)c3ccccc23)C(=O)N1C [Example 2030] ({CH2CO}-Y[NMeA]NP[Dap]([Gly-Cholyl])L[Pro(4R-Me)]W[Dab]([Gly-Cholyl])[X35][NMeNle][NMeNle]LCG-NH2; thioether N-14) | 5600
4 | CCCC[C@H]1C(=O)N(C)[C@@H](CCCC)C(=O)N[C@@H](CC(C)C)C(=O)N[C@H](C(=O)NCC(N)=O)CSCC(=O)N[C@@H](Cc2ccc(O)cc2)C(=O)N(C)[C@@H](C)C(=O)N[C@@H](CC(N)=O)C(=O)N2CCC[C@H]2C(=O)N[C@@H](CNC(=O)CNC(=O)CC[C@@H](C)[C@H]2CC[C@H]3[C@@H]4[C@H](O)C[C@@H]5C[C@H](O)CC[C@]5(C)[C@H]4C[C@H](O)[C@]23C)C(=O)N[C@@H](CC(C)C)C(=O)N2C[C@H](C)C[C@H]2C(=O)N[C@@H](Cc2c[nH]c3ccccc23)C(=O)N[C@@H](CCNC(=O)CNC(=O)CC[C@@H](C)[C@H]2CC[C@H]3[C@@H]4[C@H](O)C[C@@H]5C[C@H](O)CC[C@]5(C)[C@H]4C[C@H](O)[C@]23C)C(=O)N[C@@H](Cc2cn(CC(=O)NCCCCN)c3ccccc23)C(=O)N1C [Example 2031] ({CH2CO}-Y[NMeA]NP[Dap]([Gly-Cholyl])L[Pro(4R-Me)]W[Dab]([Gly-Cholyl])[X7][NMeNle][NMeNle]LCG-NH2; thioether N-14) | 490
5 | CCCC[C@H]1C(=O)N(C)[C@@H](CCCC)C(=O)N[C@@H](CC(C)C)C(=O)N[C@H](C(=O)NCC(N)=O)CSCC(=O)N[C@@H](Cc2ccc(O)cc2)C(=O)N(C)[C@@H](C)C(=O)N[C@@H](CC(N)=O)C(=O)N2CCC[C@H]2C(=O)N[C@@H](CNC(=O)CC[C@@H](C)[C@H]2CC[C@H]3[C@@H]4[C@@H](O)C[C@@H]5C[C@H](O)CC[C@]5(C)[C@H]4CC[C@]23C)C(=O)N[C@@H](CC(C)C)C(=O)N2C[C@H](C)C[C@H]2C(=O)N[C@@H](Cc2c[nH]c3ccccc23)C(=O)N[C@@H](CCNC(=O)CC[C@@H](C)[C@H]2CC[C@H]3[C@@H]4[C@@H](O)C[C@@H]5C[C@H](O)CC[C@]5(C)[C@H]4CC[C@]23C)C(=O)N[C@@H](Cc2cn(CC(=O)NCCN)c3ccccc23)C(=O)N1C [Example 2032] ({CH2CO}-Y[NMeA]NP[Dap](Ursodeoxycholyl)L[Pro(4R-Me)]W[Dab](Ursodeoxycholyl)[X1][NMeNle][NMeNle]LCG-NH2; thioether N-14) | 460
6 | CCCCOC(=O)Cn1cc(C[C@@H]2NC(=O)[C@H](CCNC(=O)CNC(=O)CC[C@@H](C)[C@H]3CC[C@H]4[C@@H]5[C@H](O)C[C@@H]6C[C@H](O)CC[C@]6(C)[C@H]5C[C@H](O)[C@]34C)NC(=O)[C@H](Cc3c[nH]c4ccccc34)NC(=O)[C@@H]3C[C@@H](C)CN3C(=O)[C@H](CC(C)C)NC(=O)[C@H](CNC(=O)CNC(=O)CC[C@@H](C)[C@H]3CC[C@H]4[C@@H]5[C@H](O)C[C@@H]6C[C@H](O)CC[C@]6(C)[C@H]5C[C@H](O)[C@]34C)NC(=O)[C@@H]3CCCN3C(=O)[C@H](CC(N)=O)NC(=O)[C@H](C)N(C)C(=O)[C@H](Cc3ccc(O)cc3)NC(=O)CSC[C@@H](C(=O)NCC(N)=O)NC(=O)[C@H](CC(C)C)NC(=O)[C@H](CCCC)N(C)C(=O)[C@H](CCCC)N(C)C2=O)c2ccccc21 [Example 2033] ({CH2CO}-Y[NMeA]NP[Dap]([Gly-Cholyl])L[Pro(4R-Me)]W[Dab]([Gly-Cholyl])[X34][NMeNle][NMeNle]LCG-NH2; thioether N-14) | 4.2
7 | CCCCCCOC(=O)Cn1cc(C[C@@H]2NC(=O)[C@H](CCNC(=O)CNC(=O)CC[C@@H](C)[C@H]3CC[C@H]4[C@@H]5[C@H](O)C[C@@H]6C[C@H](O)CC[C@]6(C)[C@H]5C[C@H](O)[C@]34C)NC(=O)[C@H](Cc3c[nH]c4ccccc34)NC(=O)[C@@H]3C[C@@H](C)CN3C(=O)[C@H](CC(C)C)NC(=O)[C@H](CNC(=O)CNC(=O)CC[C@@H](C)[C@H]3CC[C@H]4[C@@H]5[C@H](O)C[C@@H]6C[C@H](O)CC[C@]6(C)[C@H]5C[C@H](O)[C@]34C)NC(=O)[C@@H]3CCCN3C(=O)[C@H](CC(N)=O)NC(=O)[C@H](C)N(C)C(=O)[C@H](Cc3ccc(O)cc3)NC(=O)CSC[C@@H](C(=O)NCC(N)=O)NC(=O)[C@H](CC(C)C)NC(=O)[C@H](CCCC)N(C)C(=O)[C@H](CCCC)N(C)C2=O)c2ccccc21 [Example 2034] ({CH2CO}-Y[NMeA]NP[Dap]([Gly-Cholyl])L[Pro(4R-Me)]W[Dab]([Gly-Cholyl])[X30][NMeNle][NMeNle]LCG-NH2; thioether N-14) | 5200
8 | CCCC[C@H]1C(=O)N(C)[C@@H](CCCC)C(=O)N[C@@H](CC(C)C)C(=O)N[C@H](C(=O)NCC(N)=O)CSCC(=O)N[C@@H](Cc2ccc(O)cc2)C(=O)N(C)[C@@H](C)C(=O)N[C@@H](CC(N)=O)C(=O)N2CCC[C@H]2C(=O)N[C@@H](CNC(=O)CNC(=O)CC[C@@H](C)[C@H]2CC[C@H]3[C@@H]4[C@H](O)C[C@@H]5C[C@H](O)CC[C@]5(C)[C@H]4C[C@H](O)[C@]23C)C(=O)N[C@@H](CC(C)C)C(=O)N2C[C@H](C)C[C@H]2C(=O)N[C@@H](Cc2c[nH]c3ccccc23)C(=O)N[C@@H](CCNC(=O)CNC(=O)CC[C@@H](C)[C@H]2CC[C@H]3[C@@H]4[C@H](O)C[C@@H]5C[C@H](O)CC[C@]5(C)[C@H]4C[C@H](O)[C@]23C)C(=O)N[C@@H](Cc2cn(CC(=O)OCCO)c3ccccc23)C(=O)N1C [Example 2035] ({CH2CO}-Y[NMeA]NP[Dap]([Gly-Cholyl])L[Pro(4R-Me)]W[Dab]([Gly-Cholyl])[X37][NMeNle][NMeNle]LCG-NH2; thioether N-14) | 830
9 | CCCC[C@H]1C(=O)N(C)[C@@H](CCCC)C(=O)N[C@@H](CC(C)C)C(=O)N[C@H](C(=O)NCC(N)=O)CSCC(=O)N[C@@H](Cc2ccc(O)cc2)C(=O)N(C)[C@@H](C)C(=O)N[C@@H](CC(N)=O)C(=O)N2CCC[C@H]2C(=O)N[C@@H](CNC(=O)CNC(=O)CC[C@@H](C)[C@H]2CC[C@H]3[C@@H]4[C@H](O)C[C@@H]5C[C@H](O)CC[C@]5(C)[C@H]4C[C@H](O)[C@]23C)C(=O)N[C@@H](CC(C)C)C(=O)N2C[C@H](C)C[C@H]2C(=O)N[C@@H](Cc2c[nH]c3ccccc23)C(=O)N[C@@H](CCNC(=O)CNC(=O)CC[C@@H](C)[C@H]2CC[C@H]3[C@@H]4[C@H](O)C[C@@H]5C[C@H](O)CC[C@]5(C)[C@H]4C[C@H](O)[C@]23C)C(=O)N[C@@H](Cc2cn(CC(=O)OCCOCCO)c3ccccc23)C(=O)N1C [Example 2036] ({CH2CO}-Y[NMeA]NP[Dap]([Gly-Cholyl])L[Pro(4R-Me)]W[Dab]([Gly-Cholyl])[X4][NMeNle][NMeNle]LCG-NH2; thioether N-14) | 1000
